We go through two molecules from PMC5012427 (Molecular cell, 2016).

Numbering of substitutions follows the chain as printed.

In one experiment the target is T1, Coq8^NΔ41 (Coq8p) (Saccharomyces cerevisiae, UniProt P27697, A197G).
T1 sequence (P27697 42-501 A197G): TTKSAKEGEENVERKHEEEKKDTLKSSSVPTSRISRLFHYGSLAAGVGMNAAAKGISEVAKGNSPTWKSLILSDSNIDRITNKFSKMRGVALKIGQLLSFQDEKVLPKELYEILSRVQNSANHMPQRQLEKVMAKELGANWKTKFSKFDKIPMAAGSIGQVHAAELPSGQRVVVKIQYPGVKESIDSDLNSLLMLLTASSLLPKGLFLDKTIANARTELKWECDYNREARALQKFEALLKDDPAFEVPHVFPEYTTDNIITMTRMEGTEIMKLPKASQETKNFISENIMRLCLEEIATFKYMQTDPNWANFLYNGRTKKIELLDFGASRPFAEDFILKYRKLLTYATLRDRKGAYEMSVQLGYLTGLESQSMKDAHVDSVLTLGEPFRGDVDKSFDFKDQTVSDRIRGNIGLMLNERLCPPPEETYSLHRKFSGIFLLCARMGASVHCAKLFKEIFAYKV
The experiment can be described thus: nucleotide binding. The settings on record: A-rich loop A-to-G mutant.

The next experiment deals with T2, MBP-Coq8^NΔ41 (Saccharomyces cerevisiae, UniProt P27697).
T2 sequence (P27697 42-501): T1 sequence (P27697 42-501 A197G) with G156A
The experiment can be described thus: co-purification, LC-MS/MS lipidomics. The format is binding. The following applies: co-purified from E. coli; WT compared with mutants.

With `Nc1ncnc2c1ncn2[C@@H]1O[C@H](COP(=O)(O)OP(=O)(O)O)[C@@H](O)[C@H]1O` [ADP], the “nucleotide binding (method in supplement)” value at Coq8^NΔ41 (Coq8p) was “selectivity for ADP over ATP that can be reversed by an A-rich loop A-to-G mutation”.

Turning to `CC(C)=CCC/C(C)=C/CC/C(C)=C/CC/C(C)=C/CC/C(C)=C/CC/C(C)=C/CC/C(C)=C/Cc1ccccc1O` [heptaprenylphenol], the “co-purification, LC-MS/MS lipidomics” value on MBP-Coq8^NΔ41 is “binding of OHB, OPP, and heptaprenylphenol (HPP) was decreased by Coq8p active site mutations”.
